Data: article PMC4890880 (ACS infectious diseases, 2016)
Where two headings read alike, the source gives them in different places.

Columns and labels:
HepG2-A16-CD81EGFP cells [1] = experiment: cells; conditions: Homo sapiens, HepG2, read-out: % inhibition
HepG2-A16-CD81EGFP cells [2] = experiment: cells; conditions: Homo sapiens, HepG2, read-out: % inhibition; remark: listed apart in the source
[3] = test system: Plasmodium berghei (Pb-Luc) exoerythrocytic-stage parasites; experiment: microbe, parasite or virus in culture
[4] = read-out: Inhibition% @ 50 uM rep1
[5] = read-out: Inhibition% @ 50 uM rep2

O=C(Nc1ccc(Br)cc1)Nc1cccc(Cl)c1 [MMV001318]
inhibition at 50 µM (HepG2-A16-CD81EGFP cells [1]): 66.2% | inhibition at 50 µM (HepG2-A16-CD81EGFP cells [2]): 65.5% | inhibition at 50 µM [3, 4]: 103% | inhibition at 50 µM [3, 5]: 102%

CC1CN(C(=O)c2sc3ccccc3c2Cl)CC(C)O1 (stereo not drawn) [MMV020492]
inhibition at 50 µM (HepG2-A16-CD81EGFP cells [1]): 25% | inhibition at 50 µM (HepG2-A16-CD81EGFP cells [2]): 23.2% | inhibition at 50 µM [3, 4]: 44% | inhibition at 50 µM [3, 5]: 44%

Oc1ccccc1CNCC12CC3CC(CC(C3)C1)C2 [MMV020788]
inhibition at 50 µM (HepG2-A16-CD81EGFP cells [1]): 94% | inhibition at 50 µM (HepG2-A16-CD81EGFP cells [2]): 95.9% | inhibition at 50 µM [3, 4]: 102% | inhibition at 50 µM [3, 5]: 103%

CCOC(=O)c1cnc2c(C)cc(C)cc2c1Nc1ccc(OC)c(OC)c1 [MMV008294]
inhibition at 50 µM (HepG2-A16-CD81EGFP cells [1]): 1.7% | inhibition at 50 µM (HepG2-A16-CD81EGFP cells [2]): -1.86% | inhibition at 50 µM [3, 4]: 0.759% | inhibition at 50 µM [3, 5]: 0%

OC(CNC1CCCC1)Cn1c2ccccc2c2ccccc21 (stereo not drawn) [MMV000848]
inhibition at 50 µM (HepG2-A16-CD81EGFP cells [1]): 96.9% | inhibition at 50 µM (HepG2-A16-CD81EGFP cells [2]): 99.2% | inhibition at 50 µM [3, 4]: 103% | inhibition at 50 µM [3, 5]: 104%

O=C(CSc1ccc2nnc(-c3cccc(F)c3)n2n1)Nc1ccc2c(c1)OCO2 [MMV665918]
inhibition at 50 µM (HepG2-A16-CD81EGFP cells [1]): -2.83% | inhibition at 50 µM (HepG2-A16-CD81EGFP cells [2]): 0.859% | inhibition at 50 µM [3, 4]: -43% | inhibition at 50 µM [3, 5]: -48%

CSC1=NC(=Nc2c(C)cccc2C)C2(CCC(C(C)(C)C)CC2)N1c1ccc(Cl)cc1 (stereo not drawn) [MMV666596]
inhibition at 50 µM (HepG2-A16-CD81EGFP cells [1]): 88.7% | inhibition at 50 µM (HepG2-A16-CD81EGFP cells [2]): 89.2% | inhibition at 50 µM [3, 4]: 104% | inhibition at 50 µM [3, 5]: 106%

CCOc1cc(Br)c(C(C)NC(=O)c2cccc(OC)c2)cc1OCC (stereo not drawn) [MMV665796]
inhibition at 50 µM (HepG2-A16-CD81EGFP cells [1]): 88.4% | inhibition at 50 µM (HepG2-A16-CD81EGFP cells [2]): 96.9% | inhibition at 50 µM [3, 4]: 103% | inhibition at 50 µM [3, 5]: 104%

CCCc1c(CC)c(=N)c2ccccc2n1C [MMV008416]
inhibition at 50 µM (HepG2-A16-CD81EGFP cells [1]): 83.1% | inhibition at 50 µM (HepG2-A16-CD81EGFP cells [2]): 84% | inhibition at 50 µM [3, 4]: 101% | inhibition at 50 µM [3, 5]: 104%

CN(C)c1ccc(C=Cc2nc(=O)c3ccccc3o2)cc1 [MMV006309]
inhibition at 50 µM (HepG2-A16-CD81EGFP cells [1]): 96.7% | inhibition at 50 µM (HepG2-A16-CD81EGFP cells [2]): 98.3% | inhibition at 50 µM [3, 4]: 104% | inhibition at 50 µM [3, 5]: 105%

Cc1cccc(Nc2nc(N)c3ccccc3n2)c1 [MMV019110]
inhibition at 50 µM (HepG2-A16-CD81EGFP cells [1]): 91.6% | inhibition at 50 µM (HepG2-A16-CD81EGFP cells [2]): 92% | inhibition at 50 µM [3, 4]: 99% | inhibition at 50 µM [3, 5]: 98%

COc1ccc(C2Sc3ccccc3N=C3C2=C(O)c2ccccc23)cc1 (stereo not drawn) [MMV000563]
inhibition at 50 µM (HepG2-A16-CD81EGFP cells [1]): 62.5% | inhibition at 50 µM (HepG2-A16-CD81EGFP cells [2]): 71.1% | inhibition at 50 µM [3, 4]: 103% | inhibition at 50 µM [3, 5]: 104%

COc1ccc2c(=O)cc(C(Cl)(Cl)Cl)oc2c1 [MMV665820]
inhibition at 50 µM (HepG2-A16-CD81EGFP cells [1]): 96.4% | inhibition at 50 µM (HepG2-A16-CD81EGFP cells [2]): 98.1% | inhibition at 50 µM [3, 4]: 103% | inhibition at 50 µM [3, 5]: 102%

COc1ccc(-c2nc(NC(=O)CS(=O)(=O)c3ccc(F)cc3)sc2C)cc1 [MMV665915]
inhibition at 50 µM (HepG2-A16-CD81EGFP cells [1]): 92.4% | inhibition at 50 µM (HepG2-A16-CD81EGFP cells [2]): 95.2% | inhibition at 50 µM [3, 4]: 101% | inhibition at 50 µM [3, 5]: 100%

CCOc1ccccc1CNC(=O)C1c2ccccc2C(=O)N(CC(C)C)C1c1cccs1 (stereo not drawn) [MMV000653]
inhibition at 50 µM (HepG2-A16-CD81EGFP cells [1]): 90.2% | inhibition at 50 µM (HepG2-A16-CD81EGFP cells [2]): 94% | inhibition at 50 µM [3, 4]: 104% | inhibition at 50 µM [3, 5]: 106%

O=C(Nc1ccc(Cl)cc1)N1CCN(c2ccc3nncn3n2)CC1 [MMV665917]
inhibition at 50 µM (HepG2-A16-CD81EGFP cells [1]): 38.3% | inhibition at 50 µM (HepG2-A16-CD81EGFP cells [2]): 8.42% | inhibition at 50 µM [3, 4]: 60% | inhibition at 50 µM [3, 5]: 62%

O=C(Nc1ccsc1C(=O)NC1CCCCC1)c1ccc(F)cc1 [MMV665939]
inhibition at 50 µM (HepG2-A16-CD81EGFP cells [1]): 25.8% | inhibition at 50 µM (HepG2-A16-CD81EGFP cells [2]): 35% | inhibition at 50 µM [3, 4]: 71% | inhibition at 50 µM [3, 5]: 43%

FC(F)(F)c1cccc(Nc2nc(-c3ccccc3)nc3ncccc23)c1 [MMV665798]
inhibition at 50 µM (HepG2-A16-CD81EGFP cells [1]): 95.3% | inhibition at 50 µM (HepG2-A16-CD81EGFP cells [2]): 98.3% | inhibition at 50 µM [3, 4]: 103% | inhibition at 50 µM [3, 5]: 104%

CCn1c(SCC(=O)Nc2cc(C(F)(F)F)ccc2Cl)nc2ccccc2c1=O [MMV666103]
inhibition at 50 µM (HepG2-A16-CD81EGFP cells [1]): -3.72% | inhibition at 50 µM (HepG2-A16-CD81EGFP cells [2]): -0.573% | inhibition at 50 µM [3, 4]: 69% | inhibition at 50 µM [3, 5]: 87%

COc1ccc(Br)cc1C1Nc2ccc3ccccc3c2C2=C1C(=O)CC(c1ccccc1)C2 (stereo not drawn) [MMV020885]
inhibition at 50 µM (HepG2-A16-CD81EGFP cells [1]): 69.1% | inhibition at 50 µM (HepG2-A16-CD81EGFP cells [2]): 75.1% | inhibition at 50 µM [3, 4]: 102% | inhibition at 50 µM [3, 5]: 102%

CNCCCNc1ccnc2cc(Cl)ccc12 [MMV020500]
inhibition at 50 µM (HepG2-A16-CD81EGFP cells [1]): 101% | inhibition at 50 µM (HepG2-A16-CD81EGFP cells [2]): 101% | inhibition at 50 µM [3, 4]: 104% | inhibition at 50 µM [3, 5]: 105%

CCN(CC)CCCNc1nc(-c2ccc(Cl)cc2)nc2ccccc12 [MMV665961]
inhibition at 50 µM (HepG2-A16-CD81EGFP cells [1]): 95% | inhibition at 50 µM (HepG2-A16-CD81EGFP cells [2]): 87.3% | inhibition at 50 µM [3, 4]: 101% | inhibition at 50 µM [3, 5]: 103%

CCOc1cc2c(cc1OCC)C(c1cc(C)c(O)c(C)c1)NCC2 (stereo not drawn) [MMV000483]
inhibition at 50 µM (HepG2-A16-CD81EGFP cells [1]): 23% | inhibition at 50 µM (HepG2-A16-CD81EGFP cells [2]): 55.7% | inhibition at 50 µM [3, 4]: 69% | inhibition at 50 µM [3, 5]: 61%

CN1c2ccccc2N(C)C1c1ccc2c(c1)OCO2 [MMV666009]
inhibition at 50 µM (HepG2-A16-CD81EGFP cells [1]): 81.6% | inhibition at 50 µM (HepG2-A16-CD81EGFP cells [2]): 81% | inhibition at 50 µM [3, 4]: 102% | inhibition at 50 µM [3, 5]: 105%
